# Test results taken from patent publication US5932623A, “Process for the production of fruit polyphenols from unripe rosaceae fruit” (The Nikka Whisky Distilling Co., Ltd.,, priority 1993, dated 1999).
# Like-named read-outs stand apart in the source and are kept apart here.
# Tests used:
# [1] = Test method for antioxidative activity (peroxide formation from linolic acid, iron rhodanide method); details: compound added at 2 μM/g (linolic acid); one week after addition; FIG. 4
# Procedure: 5 ml of a base solution (ethanol containing 4% of linolic acid) was mixed with 4 ml of a phosphate buffer solution (pH=7.0) and 1 ml of a sample solution in a tightly stoppered test tube. The test tube was kept in a 50° C. thermostat under light shielding. Also kept under the same conditions were a test tube (control) containing ethanol in place of linolic acid and a test tube (blank) containing the sample solvent in place of the sample.
# During the storage period, the reaction mixture was sampled with the lapse of time to quantitatively determine the amount of peroxide formed by the isothiocyanate method (the iron rhodanide method).
# [2] = biological target: T1, GTase (glucosyltransferase) of S. sobrinus (Streptococcus downei, UniProt P27470); assay: Test for GTase-inhibiting activity (insoluble glucan formation, turbidity at 550 nm); type: biochemical, Streptococcus sobrinus ATCC 33478; details: for GTase-inhibiting activity (in words): FIG. 17 and 18
# T1 construct: Centrifugation was conducted to remove bacterial cells and obtain a supernatant; made in house; host or cells: S. sobrinus culture supernatant (native secreted enzyme, ammonium sulfate and hydroxyapatite purified)
# T1 sequence (P27470 39-1592): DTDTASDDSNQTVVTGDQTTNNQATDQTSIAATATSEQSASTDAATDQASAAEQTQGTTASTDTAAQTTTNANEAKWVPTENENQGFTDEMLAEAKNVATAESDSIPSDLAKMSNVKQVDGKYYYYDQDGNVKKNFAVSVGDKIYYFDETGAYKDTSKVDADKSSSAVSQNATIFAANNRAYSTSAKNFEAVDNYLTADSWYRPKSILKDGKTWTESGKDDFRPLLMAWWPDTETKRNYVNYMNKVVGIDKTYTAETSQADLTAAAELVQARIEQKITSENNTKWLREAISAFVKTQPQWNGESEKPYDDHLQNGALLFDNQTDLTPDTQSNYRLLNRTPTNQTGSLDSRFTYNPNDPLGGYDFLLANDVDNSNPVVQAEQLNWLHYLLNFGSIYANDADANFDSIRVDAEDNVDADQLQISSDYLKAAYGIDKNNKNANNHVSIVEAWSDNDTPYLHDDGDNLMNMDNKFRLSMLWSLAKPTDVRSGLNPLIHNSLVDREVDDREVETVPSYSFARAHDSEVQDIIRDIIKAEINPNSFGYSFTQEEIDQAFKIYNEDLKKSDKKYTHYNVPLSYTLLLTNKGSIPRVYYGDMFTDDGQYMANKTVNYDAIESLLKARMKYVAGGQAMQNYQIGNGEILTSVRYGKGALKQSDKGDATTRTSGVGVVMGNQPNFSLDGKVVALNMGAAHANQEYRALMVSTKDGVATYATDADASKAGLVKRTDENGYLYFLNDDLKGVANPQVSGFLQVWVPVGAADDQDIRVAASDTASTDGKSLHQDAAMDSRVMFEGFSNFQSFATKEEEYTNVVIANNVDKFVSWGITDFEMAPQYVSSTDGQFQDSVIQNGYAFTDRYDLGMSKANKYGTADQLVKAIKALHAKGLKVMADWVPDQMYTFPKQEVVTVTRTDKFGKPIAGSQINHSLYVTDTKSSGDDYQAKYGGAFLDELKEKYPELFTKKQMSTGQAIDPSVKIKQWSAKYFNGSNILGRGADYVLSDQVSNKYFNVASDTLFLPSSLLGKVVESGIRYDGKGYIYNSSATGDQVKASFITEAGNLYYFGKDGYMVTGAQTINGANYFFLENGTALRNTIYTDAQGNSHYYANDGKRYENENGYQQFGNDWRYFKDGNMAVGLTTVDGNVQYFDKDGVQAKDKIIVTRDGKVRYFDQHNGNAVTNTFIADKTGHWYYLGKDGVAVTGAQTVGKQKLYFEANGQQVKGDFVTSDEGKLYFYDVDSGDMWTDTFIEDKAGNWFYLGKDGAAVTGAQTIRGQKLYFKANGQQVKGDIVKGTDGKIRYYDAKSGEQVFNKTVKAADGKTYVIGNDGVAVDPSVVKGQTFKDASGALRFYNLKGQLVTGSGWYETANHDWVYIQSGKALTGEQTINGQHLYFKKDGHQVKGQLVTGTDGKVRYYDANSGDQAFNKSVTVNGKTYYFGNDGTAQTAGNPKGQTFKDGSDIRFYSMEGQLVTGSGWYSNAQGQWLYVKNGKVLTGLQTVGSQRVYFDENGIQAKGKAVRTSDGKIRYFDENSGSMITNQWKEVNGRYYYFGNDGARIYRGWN
# Procedure: S. sobrinus was cultured in a TTY medium [Agric. Biol. Chem., 54 (11), pp. 2925-2929, 1990] at 37° C. for 18 hours. Centrifugation was conducted to remove bacterial cells and obtain a supernatant. To the supernatant was added ammonium sulfate to 50% saturation. Then, centrifugation was conducted to recover the resulting precipitate. The precipitate was redissolved in a 0.05 M phosphate buffer solution (pH 6.5). The resulting solution was dialyzed with the same buffer solution. The GTase in the dialyzate was purified and removed by hydroxyapatite chromatography. The GTase (capable of forming insoluble glucan) was eluted with an about 0.4 M phosphate buffer solution. The GTase-containing elute was used for the following test.
# A purified GTase solution and a sample solution were added to 1 ml of a substrate solution [a 0.1 M phosphate buffer solution (pH 6.5) containing 2% of sucrose, 0.1% of sodium azide and 40 μM of dextran T10]. Water was added for dilution to make the total volume 2 ml. The resulting solution was subjected to a reaction at 37° C. for 18 hours. The amount of insoluble glucan formed by the reaction was measured as a turbidity expressed by an absorbance at 550 nm, and the formation ratio (%) of insoluble glucan was calculated using the following formula: […]
# formation ratio (%) of insoluble glucan=(SS-SB).div.(CS-CB)×100 wherein SS: absorbance of sample, SB: absorbance of blank for sample (the blank contained no enzyme), CS: absorbance of control (containing no sample), and CB: absorbance of blank for control (the blank contained no sample and no enzyme).
# [3] = biological target: T2, ACE (angiotensin I converting enzyme) (Homo sapiens, UniProt P12821); assay: Test for ACE-inhibiting activity (commercial ACE, Bz-Gly-His-Leu substrate, fluorescence); type: biochemical
# T2 construct: purchased
# T2 sequence (P12821 30-1306, species assumed): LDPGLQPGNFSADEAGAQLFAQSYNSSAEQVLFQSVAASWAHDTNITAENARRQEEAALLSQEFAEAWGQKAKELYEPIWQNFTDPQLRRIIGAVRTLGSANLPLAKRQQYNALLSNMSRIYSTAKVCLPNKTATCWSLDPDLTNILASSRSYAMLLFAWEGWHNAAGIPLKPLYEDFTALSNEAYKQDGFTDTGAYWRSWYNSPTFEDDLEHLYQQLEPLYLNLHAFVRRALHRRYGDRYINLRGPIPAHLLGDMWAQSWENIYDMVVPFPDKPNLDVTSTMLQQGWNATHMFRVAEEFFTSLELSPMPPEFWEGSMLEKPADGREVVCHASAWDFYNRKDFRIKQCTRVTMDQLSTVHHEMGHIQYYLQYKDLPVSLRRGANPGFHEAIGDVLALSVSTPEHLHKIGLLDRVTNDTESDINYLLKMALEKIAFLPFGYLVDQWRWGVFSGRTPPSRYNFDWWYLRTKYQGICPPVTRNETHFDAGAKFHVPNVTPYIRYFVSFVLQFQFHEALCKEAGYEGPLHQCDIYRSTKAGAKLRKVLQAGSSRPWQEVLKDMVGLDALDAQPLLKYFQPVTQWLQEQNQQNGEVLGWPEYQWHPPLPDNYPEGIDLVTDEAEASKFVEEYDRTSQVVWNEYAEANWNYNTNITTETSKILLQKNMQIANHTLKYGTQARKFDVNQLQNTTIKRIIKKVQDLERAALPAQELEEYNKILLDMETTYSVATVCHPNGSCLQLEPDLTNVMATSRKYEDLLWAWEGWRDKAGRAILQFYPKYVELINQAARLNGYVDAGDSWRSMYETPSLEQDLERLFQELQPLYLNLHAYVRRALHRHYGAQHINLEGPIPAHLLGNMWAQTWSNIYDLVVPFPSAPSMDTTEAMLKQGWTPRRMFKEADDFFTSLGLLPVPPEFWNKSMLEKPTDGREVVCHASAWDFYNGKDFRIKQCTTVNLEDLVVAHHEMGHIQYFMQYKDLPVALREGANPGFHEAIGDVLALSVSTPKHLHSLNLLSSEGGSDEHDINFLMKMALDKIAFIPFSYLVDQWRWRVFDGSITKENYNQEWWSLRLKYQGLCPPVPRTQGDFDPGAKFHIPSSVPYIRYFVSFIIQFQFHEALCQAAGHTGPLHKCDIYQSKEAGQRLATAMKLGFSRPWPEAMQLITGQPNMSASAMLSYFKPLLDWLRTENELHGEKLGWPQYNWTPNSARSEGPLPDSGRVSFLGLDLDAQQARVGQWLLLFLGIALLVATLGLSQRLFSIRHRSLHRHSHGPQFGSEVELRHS
# Procedure: The test for ACE-inhibiting activity was conducted by an ordinary method.
# The ACE-inhibiting activity of the sample solution was expressed by the following formula: […]
# where S: the fluorescent intensity of test solution,
# C: the fluorescent intensity of comparative solution wherein water was used in place of the sample,
# SB : the fluorescent intensity of blank for S (the blank contained water in place of the enzyme), and
# CB : the fluorescent intensity of blank for C (the blank contained water in place of the enzyme).
# [4] = system: Salmonella typhimurium TA 98 or TA 100; assay: Antimutagenic activity, modified Ames method with S 9-mix; type: cell-based; details: amount per plate
# Procedure: In this Example, antimutagenic activity was measured by modifying the ames method (Mutation Research, vol. 31, p. 347, 1975).
# An antimutagenic compound [benzo(a)pyrene or Trp-P-2] solution was mixed with a phosphate buffer solution, a sample solution, S 9-mix and a salmonella (a solution obtained by culturing Salmonella typhimurium TA 98 or TA 100 overnight). The mixture was cultured at 37° C. for 2 days. The number of the resulting colonies was counted. The amount of each polyphenol used was shown based on a scale expressed in geometric progression, between 1 and 300 μg/plate. Antimutagenic activity was calculated using the following formula: […]
# antimutagenic activity (%)={(C-B)-(S-B)}).div.(C-B)×100 wherein S: number of colonies of test solution
# C: number of colonies of control wherein water is used in place of the sample, and B: number of colonies of blank wherein water is used in place of the sample and the mutagenic com pound.
# [5] = biological target: T3, hyaluronidase (Bos taurus, UniProt Q2YDK3); assay: Test for hyaluronidase-inhibiting activity (commercial hyaluronidase activated with compound 48/80); type: biochemical; details: FIG. 16
# T3 construct: purchased
# T3 sequence (Q2YDK3 36-553): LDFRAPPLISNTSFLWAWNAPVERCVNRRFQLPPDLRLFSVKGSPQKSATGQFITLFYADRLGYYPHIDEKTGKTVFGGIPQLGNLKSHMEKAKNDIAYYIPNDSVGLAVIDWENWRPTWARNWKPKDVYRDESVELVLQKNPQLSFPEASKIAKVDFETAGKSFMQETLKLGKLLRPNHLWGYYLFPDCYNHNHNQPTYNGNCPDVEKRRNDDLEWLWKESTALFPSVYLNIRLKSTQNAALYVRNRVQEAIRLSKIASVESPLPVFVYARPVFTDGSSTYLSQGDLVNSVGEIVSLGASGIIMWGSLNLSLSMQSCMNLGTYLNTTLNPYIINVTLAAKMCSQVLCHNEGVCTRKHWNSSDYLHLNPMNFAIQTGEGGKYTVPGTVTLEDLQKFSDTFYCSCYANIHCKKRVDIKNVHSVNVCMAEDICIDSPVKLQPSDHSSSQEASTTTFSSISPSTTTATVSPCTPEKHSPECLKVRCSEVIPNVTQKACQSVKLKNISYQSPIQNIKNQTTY
# Procedure: That is, a sample solution was added to a commercial hyaluronidase solution, and preincubation was conducted. […] Then, a hyaluronic acid solution was added as a substrate, and a reaction was allowed to take place.
# The N-acetylglucosamine produced by the above reaction was subjected to the Elson-Morgan's procedure to develop a color. […] Hyaluronidase-inhibiting activity (%) was calculated using the following formula:
# (%)={(C-CB)-(S-SB)}.div.(C-CB)×100
# wherein S: absorbance of test solution,
# C: absorbance of control wherein a buffer solution is used in place of the sample,
# SB : absorbance of blank for S (the blank contained no enzyme), and
# CB : absorbance of blank for C (the blank contained no sample and no enzyme).
structure (smiles),measurement,setting,value
Oc1cc(O)c2c(c1)O[C@H](c1ccc(O)c(O)c1)[C@@H](O)C2 [(+)-catechin],"antioxidative activity (amount of peroxylipid formed, absorbance at 500 nm)",[1],antioxidative activities equivalent to those of BHA and BHT
Oc1cc(O)c2c(c1)O[C@H](c1ccc(O)c(O)c1)[C@H](O)C2 [(-)-epicatechin],GTase-inhibiting activity (in words),[2],very low GTase-inhibiting activity
same,"antioxidative activity (amount of peroxylipid formed, absorbance at 500 nm)",[1],antioxidative activities equivalent to those of BHA and BHT
"O=C(O[C@@H]1Cc2c(O)cc(O)cc2O[C@@H]1c1ccc(O)c(O)c1)c1cc(O)c(O)c(O)c1 [ECg, (-)-epicatechin gallate]",IC50,[2],~452 µM
same,IC50,"[3]; pure polyphenol compounds, FIG. 9, read-out: IC50 to ACE",2000 µM
"O=C(O[C@@H]1Cc2c(O)cc(O)cc2O[C@@H]1c1cc(O)c(O)c(O)c1)c1cc(O)c(O)c(O)c1 [EGCg, (-)-epigallocatechin gallate]",amount showing 50% antimutagenic activity to Trp-P-2,"[4]; 1 μg of Trp-P-2, FIG. 13",about 51 μg
same,amount showing 50% antimutagenic activity to benzo[a]pyrene,"[4]; 5 μg of benzo[a]pyrene, FIG. 14",about 56 μg
same,IC50,[3],300 µM
"NCCCC(=O)O [GABA, γ-aminobutyric acid]",ACE-inhibiting activity (in words),[3],no ACE-inhibiting activity
O=C(O)/C=C/c1ccc(O)c(O)c1 [caffeic acid],"antioxidative activity (amount of peroxylipid formed, absorbance at 500 nm)",[1],antioxidative activities equivalent to those of BHA and BHT
O=C(/C=C/c1ccc(O)c(O)c1)O[C@@H]1C[C@](O)(C(=O)O)C[C@@H](O)[C@H]1O [chlorogenic acid],GTase-inhibiting activity (in words),[2],very low GTase-inhibiting activity
O=C(O)/C=C/c1ccc(O)cc1 [p-coumaric acid],"antioxidative activity (amount of peroxylipid formed, absorbance at 500 nm)",[1],no antioxidative activity
O=C(CCc1ccc(O)cc1)c1c(O)cc(O)cc1O [phloretin],"antioxidative activity (amount of peroxylipid formed, absorbance at 500 nm)",[1],no antioxidative activity
O=C(CCc1ccc(O)cc1)c1c(O)cc(O)cc1O[C@@H]1O[C@H](CO)[C@@H](O)[C@H](O)[C@H]1O [phloridzin],GTase-inhibiting activity (in words),[2],very low GTase-inhibiting activity
same,"antioxidative activity (amount of peroxylipid formed, absorbance at 500 nm)",[1],no antioxidative activity
O=c1c(O)c(-c2ccc(O)c(O)c2)oc2cc(O)cc(O)c12 [quercetin],"antioxidative activity (amount of peroxylipid formed, absorbance at 500 nm)",[1],antioxidative activities equivalent to those of BHA and BHT
C[C@@H]1O[C@@H](OC[C@H]2O[C@@H](Oc3c(-c4ccc(O)c(O)c4)oc4cc(O)cc(O)c4c3=O)[C@H](O)[C@@H](O)[C@@H]2O)[C@H](O)[C@H](O)[C@H]1O [rutin],"antioxidative activity (amount of peroxylipid formed, absorbance at 500 nm)",[1],antioxidative activities equivalent to those of BHA and BHT
O=C(O)c1cc(=O)c2c(OCC(O)COc3cccc4oc(C(=O)O)cc(=O)c34)cccc2o1 [sodium cromoglicate],IC50,[5],~109 µM
